# Experimental data: PubChem BioAssay (NCI)
#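 Protocol summary: plate cells (96-well), add compound at 5 concentrations, incubate 48 h, interpolate endpoints linearly. TGI is the concentration that stops growth completely.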
# Tests used:
# Assay in all cases: NCI tumour cell line growth inhibition, 48 h
# HOP-62 NSCLC = system: HOP-62 NSCLC
# HCT-116 colon = system: HCT-116 colon
# NCI/ADR-RES ovarian = system: NCI/ADR-RES ovarian
# SNB-75 CNS = system: SNB-75 CNS
# OVCAR-4 ovarian = system: OVCAR-4 ovarian
# RXF 393 renal = system: RXF 393 renal
# M14 melanoma = system: M14 melanoma
# MDA-N = system: MDA-N
# SK-MEL-5 melanoma = system: SK-MEL-5 melanoma
# BT-549 breast = system: BT-549 breast
# DU-145 prostate = system: DU-145 prostate
# A498 renal = system: A498 renal
# HCC-2998 colon = system: HCC-2998 colon
# SF-539 CNS = system: SF-539 CNS
# ACHN renal = system: ACHN renal
# TK-10 renal = system: TK-10 renal
# SN12C renal = system: SN12C renal
# MDA-MB-435 = system: MDA-MB-435
# HT29 colon = system: HT29 colon
# KM12 colon = system: KM12 colon
# SK-MEL-28 melanoma = system: SK-MEL-28 melanoma
# IGROV1 ovarian = system: IGROV1 ovarian
# SK-OV-3 ovarian = system: SK-OV-3 ovarian
# SR leukemia = system: SR leukemia
# UO-31 renal = system: UO-31 renal
# NCI-H460 lung = system: NCI-H460 lung
# OVCAR-5 ovarian = system: OVCAR-5 ovarian
# HS 578T breast = system: HS 578T breast
# HCT-15 colon = system: HCT-15 colon
# MALME-3M melanoma = system: MALME-3M melanoma
# UACC-257 melanoma = system: UACC-257 melanoma
# LOX IMVI melanoma = system: LOX IMVI melanoma
# SF-268 CNS = system: SF-268 CNS
# CCRF-CEM leukemia = system: CCRF-CEM leukemia
# MOLT-4 leukemia = system: MOLT-4 leukemia
# EKVX NSCLC = system: EKVX NSCLC
# SK-MEL-2 melanoma = system: SK-MEL-2 melanoma
# OVCAR-8 ovarian = system: OVCAR-8 ovarian
# K-562 leukemia = system: K-562 leukemia
# 786-0 renal = system: 786-0 renal
# HOP-92 NSCLC = system: HOP-92 NSCLC
# OVCAR-3 ovarian = system: OVCAR-3 ovarian
# PC-3 prostate = system: PC-3 prostate
# MCF7 breast = system: MCF7 breast
# SW-620 colon = system: SW-620 colon
# A549 NSCLC = system: A549 NSCLC
# MDA-MB-231 breast = system: MDA-MB-231 breast
# RPMI-8226 leukemia = system: RPMI-8226 leukemia
# SNB-19 CNS = system: SNB-19 CNS
# COLO 205 colon = system: COLO 205 colon
# HL-60(TB) leukemia = system: HL-60(TB) leukemia
# SF-295 CNS = system: SF-295 CNS
# CAKI-1 renal = system: CAKI-1 renal
# UACC-62 melanoma = system: UACC-62 melanoma
# NCI-H226 lung = system: NCI-H226 lung
# U251 CNS = system: U251 CNS
# T-47D breast = system: T-47D breast
# NCI-H522 lung = system: NCI-H522 lung
# NCI-H23 lung = system: NCI-H23 lung
smiles,measurement,setting,value
O=S(=O)(c1ccccc1)c1cccc2c1NCCC2,TGI,HOP-62 NSCLC,> 100 µM
same,TGI,HCT-116 colon,> 100 µM
same,TGI,NCI/ADR-RES ovarian,> 100 µM
same,TGI,SNB-75 CNS,> 100 µM
same,TGI,OVCAR-4 ovarian,> 100 µM
same,TGI,RXF 393 renal,90.1 µM
same,TGI,M14 melanoma,> 100 µM
same,TGI,MDA-N,> 100 µM
same,TGI,SK-MEL-5 melanoma,52 µM
same,TGI,BT-549 breast,83 µM
same,TGI,DU-145 prostate,> 100 µM
same,TGI,A498 renal,> 100 µM
same,TGI,HCC-2998 colon,> 100 µM
same,TGI,SF-539 CNS,> 100 µM
same,TGI,ACHN renal,> 100 µM
same,TGI,TK-10 renal,> 100 µM
same,TGI,SN12C renal,> 100 µM
same,TGI,MDA-MB-435,> 100 µM
same,TGI,HT29 colon,> 100 µM
same,TGI,KM12 colon,> 100 µM
same,TGI,SK-MEL-28 melanoma,> 100 µM
same,TGI,IGROV1 ovarian,> 100 µM
same,TGI,SK-OV-3 ovarian,> 10 µM
same,TGI,SR leukemia,> 100 µM
same,TGI,UO-31 renal,> 100 µM
same,TGI,NCI-H460 lung,> 100 µM
same,TGI,OVCAR-5 ovarian,> 100 µM
same,TGI,HS 578T breast,> 100 µM
same,TGI,HCT-15 colon,> 100 µM
same,TGI,MALME-3M melanoma,> 100 µM
same,TGI,UACC-257 melanoma,76.9 µM
same,TGI,LOX IMVI melanoma,> 100 µM
same,TGI,SF-268 CNS,> 100 µM
same,TGI,CCRF-CEM leukemia,> 100 µM
same,TGI,MOLT-4 leukemia,> 100 µM
same,TGI,EKVX NSCLC,> 100 µM
same,TGI,SK-MEL-2 melanoma,> 10 µM
same,TGI,OVCAR-8 ovarian,> 100 µM
same,TGI,K-562 leukemia,> 100 µM
same,TGI,786-0 renal,> 100 µM
same,TGI,HOP-92 NSCLC,> 100 µM
same,TGI,OVCAR-3 ovarian,> 100 µM
same,TGI,PC-3 prostate,> 100 µM
same,TGI,MCF7 breast,> 100 µM
same,TGI,SW-620 colon,> 100 µM
same,TGI,A549 NSCLC,> 100 µM
same,TGI,MDA-MB-231 breast,> 100 µM
same,TGI,RPMI-8226 leukemia,> 100 µM
same,TGI,SNB-19 CNS,> 100 µM
same,TGI,COLO 205 colon,> 10 µM
same,TGI,HL-60(TB) leukemia,67.4 µM
same,TGI,SF-295 CNS,> 100 µM
same,TGI,CAKI-1 renal,> 100 µM
same,TGI,UACC-62 melanoma,> 10 µM
same,TGI,NCI-H226 lung,> 100 µM
Cc1cc(Nc2ccc(S(=O)(=O)O)c3cc(S(=O)(=O)O)cc(S(=O)(=O)O)c23)c2ccccc2n1,TGI,HOP-62 NSCLC,> 100 µM
same,TGI,HCT-116 colon,> 100 µM
same,TGI,NCI/ADR-RES ovarian,> 100 µM
same,TGI,SNB-75 CNS,> 100 µM
same,TGI,OVCAR-4 ovarian,> 100 µM
same,TGI,RXF 393 renal,> 100 µM
same,TGI,M14 melanoma,> 100 µM
same,TGI,MDA-N,> 100 µM
same,TGI,SK-MEL-5 melanoma,> 100 µM
same,TGI,BT-549 breast,> 100 µM
same,TGI,DU-145 prostate,> 100 µM
same,TGI,A498 renal,> 100 µM
same,TGI,HCC-2998 colon,> 100 µM
same,TGI,SF-539 CNS,> 100 µM
same,TGI,ACHN renal,> 100 µM
same,TGI,TK-10 renal,> 100 µM
same,TGI,U251 CNS,> 100 µM
same,TGI,SN12C renal,> 100 µM
same,TGI,T-47D breast,> 100 µM
same,TGI,MDA-MB-435,> 100 µM
same,TGI,HT29 colon,> 100 µM
same,TGI,KM12 colon,> 100 µM
same,TGI,SK-MEL-28 melanoma,> 100 µM
same,TGI,IGROV1 ovarian,> 100 µM
same,TGI,SK-OV-3 ovarian,> 100 µM
same,TGI,UO-31 renal,> 100 µM
same,TGI,NCI-H460 lung,> 100 µM
same,TGI,NCI-H522 lung,> 100 µM
same,TGI,OVCAR-5 ovarian,> 100 µM
same,TGI,HS 578T breast,> 100 µM
same,TGI,HCT-15 colon,> 100 µM
same,TGI,MALME-3M melanoma,> 100 µM
same,TGI,UACC-257 melanoma,> 100 µM
same,TGI,LOX IMVI melanoma,> 100 µM
same,TGI,SF-268 CNS,> 100 µM
same,TGI,MOLT-4 leukemia,> 100 µM
same,TGI,EKVX NSCLC,> 100 µM
same,TGI,SK-MEL-2 melanoma,> 100 µM
same,TGI,NCI-H23 lung,> 100 µM
same,TGI,OVCAR-8 ovarian,> 100 µM
same,TGI,786-0 renal,> 100 µM
same,TGI,OVCAR-3 ovarian,> 100 µM
same,TGI,PC-3 prostate,> 100 µM
same,TGI,MCF7 breast,> 100 µM
same,TGI,SW-620 colon,> 100 µM
same,TGI,A549 NSCLC,> 100 µM
same,TGI,MDA-MB-231 breast,> 100 µM
same,TGI,RPMI-8226 leukemia,> 100 µM
same,TGI,SNB-19 CNS,> 100 µM
same,TGI,COLO 205 colon,> 100 µM
same,TGI,HL-60(TB) leukemia,> 100 µM
same,TGI,SF-295 CNS,> 100 µM
same,TGI,CAKI-1 renal,> 100 µM
same,TGI,UACC-62 melanoma,> 100 µM
same,TGI,NCI-H226 lung,> 100 µM
